Read-outs that look alike come from different tables or passages of the source.
Assays:
[1] = human, cited from earlier work
[2] = human, intravenous; median if multiple values were reported; ref numbers in Table S1; cited from earlier work
[3] = human
[4] = intravenous, median if multiple values were reported, ref numbers in Table S1

| Structure (SMILES) | in vivo Vd_(L/kg)_Human [1, 4] [L/kg] | in vivo CL_(L/hr/kg)_Human [2] [L/h/kg] | in vivo MRT_(hr)_Human [3] [h] | in vivo Vd_(L/kg)_Human ([1]; in vivo, iv) [L/kg] |
| --- | --- | --- | --- | --- |
| Cc1[nH]cnc1CN1CCc2c(c3ccccc3n2C)C1=O [Alosetron] | 1.100 | 0.522 | 2.107 | – |
| Cc1cc(=O)n(-c2ccccc2)n1C [Antipyrine] | 0.820 | 0.038 | 21.354 | – |
| Cn1c(=O)c2c(ncn2C)n(C)c1=O [Caffeine] | 0.680 | 0.084 | 8.095 | – |
| COCc1c(C(C)C)nc(C(C)C)c(/C=C/[C@@H](O)C[C@@H](O)CC(=O)O)c1-c1ccc(F)cc1 [Cerivastatin] | 0.330 | 0.174 | 1.897 | – |
| CN(C)CCCN1c2ccccc2Sc2ccc(Cl)cc21 [Chlorpromazine] | 10.500 | 0.960 | 10.938 | – |
| NS(=O)(=O)c1cc(C2(O)NC(=O)c3ccccc32)ccc1Cl (stereo not drawn) [Chlorthalidone] | 3.900 | 0.046 | 43.333 | – |
| CN/C(=N/CCSCc1nc[nH]c1C)NC#N [Cimetidine] | 1.200 | 0.492 | 2.469 | – |
| CN(C)CCCN1c2ccccc2CCc2ccc(Cl)cc21 [Clomipramine] | 13.000 | 0.492 | 26.423 | – |
| O=c1ccc2ccccc2o1 [Coumarin] | 2.200 | 1.020 | 2.157 | – |
| Cc1onc(-c2c(Cl)cccc2Cl)c1C(=O)N[C@@H]1C(=O)N2[C@@H]1SC(C)(C)[C@@H]2C(=O)O [Dicloxacillin] | 0.110 | 0.108 | 0.917 | – |
| C[C@H]1O[C@@H](O[C@H]2[C@@H](O)C[C@H](O[C@H]3[C@@H](O)C[C@H](O[C@H]4CC[C@@]5(C)[C@H](CC[C@@H]6[C@@H]5C[C@@H](O)[C@]5(C)[C@@H](C7=CC(=O)OC7)CC[C@]65O)C4)O[C@@H]3C)O[C@@H]2C)C[C@H](O)[C@@H]1O [Digoxin] | 4.100 | 0.102 | 40.196 | – |
| CN(C)CCC=C1c2ccccc2COc2ccccc21 [Doxepin] | 12.000 | 0.840 | 14.286 | – |
| CC[C@@H](CO)NCCN[C@@H](CC)CO [Ethambutol] | 1.700 | 0.600 | 2.833 | – |
| CN1CCN(c2c(F)cc3c(=O)c(C(=O)O)cn(CCF)c3c2F)CC1 [Fleroxacin] | 1.550 | 0.144 | 10.764 | – |
| OC(Cn1cncn1)(Cn1cncn1)c1ccc(F)cc1F [Fluconazole] | 0.750 | 0.019 | 40.323 | – |
| CN[C@@H]1CCc2[nH]c3ccc(C(N)=O)cc3c2C1 [Frovatriptan] | 3.600 | 0.150 | 24.000 | – |
| Nc1nc(O)c2ncn(COC(CO)CO)c2n1 [Ganciclovir] | 1.000 | 0.240 | 3.623 | – |
| CN1C2CCCC1CC(NC(=O)c1nn(C)c3ccccc13)C2 (stereo not drawn) [Granisetron] | 3.700 | 0.546 | 6.777 | – |
| CC(C)(C)NC(=O)[C@@H]1CN(Cc2cccnc2)CCN1C[C@@H](O)C[C@@H](Cc1ccccc1)C(=O)N[C@H]1c2ccccc2C[C@H]1O [Indinavir] | 0.820 | 1.080 | 0.759 | – |
| C[C@H]1COc2c(N3CCN(C)CC3)c(F)cc3c(=O)c(C(=O)O)cn1c23 [Levofloxacin] | 4.250 | 0.114 | 37.281 | – |
| CCCCc1nc(Cl)c(CO)n1Cc1ccc(-c2ccccc2-c2nn[nH]n2)cc1 [Losartan] | 0.370 | 0.489 | 0.752 | – |
| CC(C)Oc1ccccc1N1CCN(Cc2cccc(C(=O)N3CCCCC3)c2)CC1 [Mazapertine] | 1.540 | 0.370 | 4.160 | – |
| CCN(CC)CCNC(=O)c1cc(Cl)c(N)cc1OC [Metoclopramide] | 3.200 | 0.342 | 9.357 | – |
| Cc1ccccc1N1C(=O)c2cc(S(N)(=O)=O)c(Cl)cc2NC1C (stereo not drawn) [Metolazone] | 1.600 | 0.084 | 19.048 | – |
| Cc1ncc([N+](=O)[O-])n1CCO [Metronidazole] | 0.400 | 0.051 | 7.843 | – |
| CC(C)(O)c1ccccc1CC[C@@H](SCC1(CC(=O)O)CC1)c1cccc(/C=C/c2ccc3ccc(Cl)cc3n2)c1 [Montelukast] | 0.150 | 0.041 | 3.676 | – |
| COC(=O)C1=C(C)NC(C)=C(C(=O)OCC(C)C)C1c1ccccc1[N+](=O)[O-] (stereo not drawn) [Nisoldipine] | 5.500 | 0.900 | 6.111 | – |
| O=C1CN=C(c2ccccc2)c2cc([N+](=O)[O-])ccc2N1 [Nitrazepam] | – | 0.052 | 32.946 | 1.700 |
| CNCCC=C1c2ccccc2CCc2ccccc21 [Nortriptyline] | 22.000 | 0.516 | 36.667 | – |

Reference: article PMC8342319, “Predicting blood-to-plasma concentration ratios of drugs from chemical structures and volumes of distribution in humans” (Molecular Diversity, 2021)
